Legend:
Gli1 mRNA in Smo−/− MEFs = assay: Gli1 mRNA (qRT-PCR) in Smo−/− MEFs; type: cell-based, mouse; conditions: 24 h and/or 48 h
Experimental: (§1) HEK293T and Smo^−/−, Ptch^−/− MEFs cells were cultured in DMEM plus 10% FBS, 1% L-glutamine and antibiotics. Transient transfections were performed using DreamFectTM Gold transfection reagent (Oz Biosciences SAS, Marseille, France) following the manufacturer’s instructions and for varying periods of time depending on the experiment (24–72 h). […] Vehicle (DMSO) was used as control.
(§2) Total RNA was isolated with Trizol (Invitrogen/Life Technologies, Carlsbad, CA, USA) from Smo^−/− MEFs, Ptch^−/− MEFs or HT29 cells treated for 24 h and/or 48 h with 4s at different concentrations and reverse transcribed with the SensiFAST cDNA Synthesis Kit (Bioline Reagents Limited, London, UK). Quantitative real-time PCR (Q-PCR) analysis of Gli1 and housekeeping (HPRT, TBP, HMBS) mRNA levels was performed on each cDNA sample using the VIIA7 Real Time PCR System employing Assay-on-Demand Reagents (Life Technologies) as previously described. […] Each amplification reaction was performed in triplicate, the average of the three threshold cycles was used to calculate the amount of transcript in the sample (using SDS version 2.3 Software). mRNA quantification was expressed in arbitrary units as the ratio of the sample quantity to the quantity of the calibrator (ΔCt method). […]

HT29 [1] = assay: MTT cytotoxicity assay, HT29; type: cell-based; conditions: Homo sapiens, HT-29, 72 h, MTT; for cytotoxicity at 50 µM: read-out: % Cytotoxicity (50 µM) HT29; for IC50: 0.05–50 µM
Experimental: (§3) Cytotoxicity assays were performed by using the MTT reduction method as described previously. Briefly, cancer cell lines were plated in flat-bottom 96-well plates at a cell concentration of 5 × 10^3 cells/well for the fastest growing lines, such as HEK293 and HT29 cells and 1 × 10^4 cells/well for more slowly growing lines, such as HCT116, H1975, BxPC-3, AsPC-1, B16-F10 and DAOY. Then, cells were incubated with the synthesised compounds at different concentrations (from 0.05 to 50 µM) in 200 µL with 10% FBS in RPMI 1640 or DMEM F12 culture medium at 37 °C for 72 h. Later, 10 µL of MTT were added at a final concentration of 0.5 mg/mL, incubated at 37 °C for 4 h, and then solubilised with 10% sodium dodecyl sulphate (SDS) in 0.1 mM HCl and incubated overnight at 37 °C. Formazan formation was measured at 570 nm in a multiwell plate reader (Cytation 5, Biotek Instruments, Winooski, VT, USA). Three independent biological replicates were performed.

AsPC-1 = assay: MTT cytotoxicity assay, AsPC-1; type: cell-based; conditions: Homo sapiens, ASPC1, 72 h, 0.05–50 µM
Experimental: as §3

pancreatic cancer cells = test system: pancreatic cancer cells; design: method as in PMID 28490735; conditions: cited from earlier work
HT29 [2] = assay: CFSE proliferation assay, HT29; type: cell-based, human; conditions: 19 µM, 48 h
Experimental: HT29 and HEK293 cells were resuspended at 1 × 10^6/mL in DMEM F12 without FBS. A 5 mM CFSE stock solution carboxyfluorescein diacetate succinimidyl ester (Cell Proliferation Kit, Life Technologies, Carlsbad, CA, USA) in DMSO was added to a final concentration of 5 µM and incubated at 37 °C for 15 min protected from light. At the end of the incubation period, the cells were immediately washed twice in cold PBS 1X/no-FBS. Cells were washed three times in PBS 1×/10%-FBS and resuspended in the same medium and plated in 12-well plates at a density of 1 × 10^5 cells/200 µL medium and grown overnight at 37 °C in a 5% CO2 humidified atmosphere. […] The cells were collected and then analysed by flow cytometry (BD; FACScanto II, Mountain View, CA, USA) and data were processed using FCS Express v6 software. Two independent biological replicates were performed.

Solubility in water = type: physicochemical
[3] = test system: Gli1 mRNA in WT MEFs stimulated with SAG; assay: Gli1 mRNA (qRT-PCR) in SAG-stimulated WT MEFs; type: cell-based, mouse; conditions: 10 µM, SAG 200 nM, 24 h
[4] = test system: cancer cell lines (HH-dependent and HH-independent); assay: Annexin V-FITC/PI dose-response, cancer cell lines; type: cell-based, human; conditions: 1.5–50 µM, 72 h
Experimental: Apoptosis plays a major role in maintaining the homeostasis of cells. Cellular shrinkage and DNA fragmentation at the molecular level are characteristics acquired during apoptosis. Therefore, we performed flow cytometric analysis to determine if 4s could induce apoptosis in tumour cell lines. To this end, 4s-treated cells were stained with Annexin V-FITC and/or PI and analysed by flow cytometry. Dose–response effects were assessed using 4s at concentrations under 50 µM (1.5, 3.0, 6.25, 19, 25 and 50 µM) for 72 h.
Supplemental Figure S1: 4s triggers apoptosis in various cancer cell lines. A)
Dose-response curves are shown for four neoplastic cancer cell lines and HEK293 cells as a control. Cells were treated with 4s […]
stained with annexin V-FITC and propidium iodide (PI) and analyzed by flow cytometry.
Results are presented as the mean ± SD of three independent experiments. (***) p <
0.0001 vs. control. Data were analyzed with a non-parametric t-test. B) Representative dot plot of HT29 cells untreated (control) or treated for 3 h with 4s (19 µM ). […]

[5] = test system: Gli1 mRNA in Ptch1−/− mouse embryonic fibroblasts; assay: Gli1 mRNA (qRT-PCR) in Ptch1−/− MEFs; type: cell-based; conditions: increasing concentrations, 24 h
Experimental: as §1, §2

| melting point | solubility in water (Solubility in water) | Structure (SMILES) | GLI1 mRNA levels in Smo−/− MEFs (Gli1 mRNA in Smo−/− MEFs) | cytotoxicity at 50 µM (HT29 [1]) | IC50 (HT29 [1]) | IC50 (AsPC-1) | concentration inducing apoptosis in pancreatic cancer cells (pancreatic cancer cells) | HT29 cell proliferation (CFSE) (HT29 [2]) | Gli-1 expression in WT MEF cells stimulated with SAG [3] | induction of apoptosis [4] | GLI1 mRNA levels in Ptch1−/− MEFs [5] |
| --- | --- | --- | --- | --- | --- | --- | --- | --- | --- | --- | --- |
| – | – | CS(=O)(=O)c1ccc(C(=O)Nc2ccc(Cl)c(-c3ccccn3)c2)c(Cl)c1 [Vismodegib, reference compound] | did not affect the mRNA levels of GLI1 | < 50% | > 50 µM | > 50 µM | greater than 100 µM | less effect on reducing proliferation than 4s | – | – | – |
| 153 to 155 °C | poor | CCCCCCn1cnc2c(-c3ccc(OC(F)(F)F)cc3)nc(N3CCN(c4ccncc4)CC3)nc21 [Compound 4s, 9-Hexyl-2-(4-(pyridin-4-yl)piperazin-1-yl)-6-(4-(trifluoromethoxy)phenyl)-9H-purine] | did not affect the mRNA levels of GLI1 | 25 ± 2.7% | 15 ± 1.2 µM | 1.7 ± 0.05 µM | – | significantly reduced HT29 cell proliferation | inhibited Gli-1 expression | induced apoptosis in a dose-dependent manner | significantly reduced mRNA levels of GLI1 |
